Holding throughout (format): physicochemical
The nature of data set [1]: Stabilities of the emulsions according to the added concentrations of the azacycloalkane derivative (Referential Experiment 2). As to conditions: for Observation after 3 days standing / Observation after 7 days standing: room temperature. The procedure: Each 5 ml of a 1% (W/V) solution preliminarily prepared by dissolving dipotassium glycyrrhizate in distilled water was poured in each of eight 10 ml size test tubes, and thereto was added 1-[2-(decylthio)ethyl] azacyclopentane-2-one selected from the azacycloalkane derivatives so as to make a concentration ranging from 0 to 10%. Then the mixture was agitated for 1 minute using Biomixer (NIHON SEIKI SEISAKUSHO) at 15,000 rpm to prepare each emulsion. The state of dispersion just after the preparation, or after 3 days or 7 days standing at room temperature was observed.

Data set [2] can be described thus: State of dispersion of emulsions of 1-[2-(decylthio)ethyl]azacyclopentan-2-one made with three emulsifying agents (Referential Experiment 1). The procedure: Using 1-[2-(decylthio)ethyl]azacyclopentan-2-one selected from the azacycloalkane derivatives, and three emulsifying agents hereinbelow, emulsifiabilities and stabilities of the emulsions were examined.
(§1) […] The mixutre was agitated under 15,000 rpm for 1 minute by Biomixer (NIHON SEIKI SEISAKUSHO) to prepare each emulsion. The state of dispersion just after the preparation and after 3 days standing at room temperature was observed. The turbidity just after the preparation was measured by absorbance at 650 nm, and used as the index of emulsifiability.

Data set [3] can be described thus: Turbidity just after preparation (absorbance at 650 nm) as index of emulsifiability (Referential Experiment 1). The note with it: for Turbidity (650 nm): just after preparation. The procedure: as §1
The mark [4] stands for this setting: azacycloalkane 10.0 % in 1% dipotassium glycyrrhizate.

Regarding `CCCCCCCCCCSCCN1CCCC1=O` [1-[2-(decylthio)ethyl]azacyclopentane-2-one], the “Observation just after preparation” value is “Colorless clear” in data set [1] (azacycloalkane 0.01 % in 1% dipotassium glycyrrhizate); “Colorless clear” in data set [1] (azacycloalkane 0.1 % in 1% dipotassium glycyrrhizate); “Colorless clear” in data set [1] (azacycloalkane 0.5 % in 1% dipotassium glycyrrhizate); “White clear” in data set [1] (azacycloalkane 1.0 % in 1% dipotassium glycyrrhizate); “White clear” in data set [1] (azacycloalkane 2.0 % in 1% dipotassium glycyrrhizate); “White emulsified” in data set [1] (azacycloalkane 5.0 % in 1% dipotassium glycyrrhizate). In addition, in data set [1] (setting [4]), the “Observation just after preparation” value is listed as “White emulsified”. Besides, in data set [1] (azacycloalkane 0.01% to 10% at 1% dipotassium glycyrrhizate), the “Emulsification and emulsion stability” value was “good emulsification and gave stable emulsion”. Further, the “Observation after 3 days standing” value in data set [1] (azacycloalkane 0.01 %) is “Colorless clear”; in data set [1] (azacycloalkane 0.1 %), “Colorless clear”; in data set [1] (azacycloalkane 0.5 %) it was “Colorless clear”; in data set [1] (azacycloalkane 1.0 %), “White clear”; in data set [1] (azacycloalkane 2.0 %) it was “White clear”; in data set [1] (azacycloalkane 5.0 %), “White emulsified”. In addition, in data set [1] (setting [4]), the “Observation after 3 days standing” value is “White emulsified”. Also, the “Observation after 7 days standing” value in data set [1] (azacycloalkane 0.01 %) is listed as “Colorless clear”; in data set [1] (azacycloalkane 0.1 %) it was “Colorless clear”; in data set [1] (azacycloalkane 0.5 %), “Colorless clear”; in data set [1] (azacycloalkane 1.0 %), “White clear”; in data set [1] (azacycloalkane 2.0 %) it was “White clear”; in data set [1] (azacycloalkane 5.0 %), “White emulsified”. Also, in data set [1] (setting [4]), the “Observation after 7 days standing” value was “White emulsified”.
Regarding `CC1(C)[C@@H](O[C@H]2O[C@H](C(=O)[O-])[C@@H](O)[C@H](O)[C@H]2O[C@@H]2O[C@H](C(=O)[O-])[C@@H](O)[C@H](O)[C@H]2O)CC[C@]2(C)[C@H]3C(=O)C=C4[C@@H]5C[C@@](C)(C(=O)O)CC[C@]5(C)CC[C@@]4(C)[C@]3(C)CC[C@@H]12.[K+].[K+]` [dipotassium glycyrrhizate], the “Just after preparation (state of dispersion)” value in data set [2] (emulsifying agent 0.5 %), in data set [2] (emulsifying agent 1.0 %), in data set [2] (emulsifying agent 2.0 %) and in data set [2] (emulsifying agent 3.0 %) was “White clear” in each case. For the same molecule, the “Emulsification” value in data set [2] (emulsifying agent at 0.1-5 %) is “good emulsification”. In addition, the “Dissolution” value in data set [2] (emulsifying agent at 4-5 %) was “full dissolution”. Also, the “Turbidity (650 nm)” value was 1.284 in data set [3] (emulsifying agent 0.1 %); 0.459 in data set [3] (emulsifying agent 0.5 %); 0.437 in data set [3] (emulsifying agent 1.0 %); 0.405 in data set [3] (emulsifying agent 2.0 %); 0.346 in data set [3] (emulsifying agent 3.0 %); 0.006 in data set [3] (emulsifying agent 4.0 %). Besides, the “Turbidity (650 nm)” value in data set [3] (emulsifying agent 5.0 %) is on record as 0.006. Further, the “Turbidity as index of emulsifiability, compared with HCO-60 and polysorbate 80” value in data set [3] (same concentration level) is reported as “stronger emulsifiability”.

Source of the values: patent publication US5407911A, “Parathyroid hormone-containing emulsion for nasal administration” (Asahi Kasei Kogyo Kabushiki Kaisha, priority 1991, dated 1995).
